Key:
Housefly GABA receptors = molecular target: T1, Housefly GABA receptors (Musca domestica, UniProt Q75NA5); experiment: In vitro assay of binding to housefly GABA receptors (3H-EBOB displacement, housefly neuronal membranes); conditions: housefly neuronal membranes
T1 sequence (Q75NA5 30-576): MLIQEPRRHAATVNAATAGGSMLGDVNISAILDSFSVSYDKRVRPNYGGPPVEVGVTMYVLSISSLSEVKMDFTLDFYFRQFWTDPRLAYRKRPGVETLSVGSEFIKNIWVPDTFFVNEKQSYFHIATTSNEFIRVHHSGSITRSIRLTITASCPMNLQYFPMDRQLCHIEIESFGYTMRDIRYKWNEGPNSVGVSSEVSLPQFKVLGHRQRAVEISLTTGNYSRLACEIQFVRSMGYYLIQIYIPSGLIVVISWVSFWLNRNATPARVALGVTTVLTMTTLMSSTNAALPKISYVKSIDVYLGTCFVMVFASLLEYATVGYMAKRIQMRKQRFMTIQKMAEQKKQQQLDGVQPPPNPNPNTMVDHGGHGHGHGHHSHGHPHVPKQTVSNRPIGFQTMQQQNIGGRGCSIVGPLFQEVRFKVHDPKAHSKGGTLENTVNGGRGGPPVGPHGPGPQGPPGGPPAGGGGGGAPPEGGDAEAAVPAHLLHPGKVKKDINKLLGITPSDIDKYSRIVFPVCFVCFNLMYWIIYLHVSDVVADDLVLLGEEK
Description: Newly emerged houseflies (Musca domestica, available from Rincon-Vitova Insectaries, Inc., Ventura, Calif.) were sedated with carbon dioxide gas, collected in 50 mL polypropylene conical tubes, and immediately frozen by submersion in liquid nitrogen. Unless specified, all of the following work was performed at 0-4° C. After removal from liquid nitrogen, the tubes of frozen houseflies were shaken vigorously by hand to decapitate the houseflies. […] Contaminating wings were removed by holding a vacuum nozzle approximately 4 cm above the heads, and contaminating legs were separated from the heads by passage through a #15 mesh screen. All remaining debris were removed from the pool of heads using forceps. The purified heads were collected in 50 mL polypropylene conical tubes and stored in liquid nitrogen until processed further.
About 13 g of purified housefly heads were suspended in about 65 mL of 10% sucrose buffer (10% sucrose (w/w) in 10 mM Tris, pH 7.5). The heads were homogenized for about 1 minute, using a Tissumizer™ homogenizer equipped with a SDT-100EN probe (available from Tekmar-Dohrmann, Cincinnati, Ohio) running at 70% of its maximum speed. The extract was further homogenized by about 5 passes through a 40 mL Dounce tissue grinder. The extract was then centrifuged at about 500×g for about 5 minutes to pellet large debris. The supernatant was collected; the pellet was washed with an additional 65 mL of 10% sucrose buffer and centrifuged at 500×g for about 5 minutes. The second supernatant was collected and combined with the first supernatant, and the pool was filtered through a 100μ CellMicroSieve™ mesh to remove residual debris (available from BioDesign of New York, Carmel, N.Y.).
Neuronal membranes containing active GABA receptors were collected via sucrose density centrifugation by the following method. About 8 mL of 35% sucrose buffer (35% sucrose (w/w) in 10 mM Tris, pH 7.5), were dispensed into each of six 38 mL ultracentrifuge tubes. These layers were overlaid with about 8 mL of 20% sucrose buffer (20% sucrose (w/w) in 10 mM Tris, pH 7.5), and finally overlaid with about 20 mL of filtered extract supernatant. The tubes were centrifuged at about 120,000×g for about 100 min at 4° C. After centrifugation, the 10% sucrose layer and most of the 20% sucrose layer were removed by aspiration. The membranes at the interface of the 20% sucrose and 35% sucrose layers were collected, pooled, diluted with 10% sucrose buffer, and centrifuged at about 120,000×g for about 40 min at 4° C. After centrifugation, the supernatant was discarded, and the pellets resuspended in about 6.5 mL of assay buffer (10 mM phosphate, 300 mM NaCl, pH 7.5) using a 10 mL Potter-Elvehjem tissue grinder with a Teflon® pestle. Protein concentration was determined by the Bio-Rad Protein Assay (available from Bio-Rad Laboratories, Hercules, Calif.) using bovine serum albumin as a standard. The membranes were aliquoted and stored in liquid nitrogen for up to 2 months before use.
Housefly neuronal membranes were prepared as described above from housefly heads. Test compounds were dissolved in dimethylsulfoxide (DMSO) at concentrations ranging from about 2 nM to about 100 mM. About 1 μL of a dissolved test compound was dispensed into a well of a 96-well polystyrene plate. About 100 μL of ice cold assay buffer (10 mM phosphate, 300 mM NaCl, pH 7.5) containing 5.2 nM 4′-Ethynyl-4-n-[2,3-^3H2]propylbicycloorthobenzoate (^3H-EBOB, 38 Ci/mmol, available from NEN Life Science Products, Boston, Mass.) was added to the well, followed by about 100 μL of ice cold assay buffer containing about 0.5-1.0 mg/mL housefly neuronal membranes. Control wells were prepared the same way except that the housefly neuronal membranes were omitted from the “negative” wells, and the test compounds were omitted from the “positive” wells. […]

[1] = system: houseflies (Musca domestica); experiment: In vivo housefly contact assay; conditions: contact in coated glass test tube, about 24 hours; mM = concentration of the DMSO solution, about 1 μL applied
Description: This example describes an in vivo assay to screen compounds for their ability to kill houseflies via contact. Newly emerged houseflies (Musca domestica, available from Rincon-Vitova Insectaries, Inc., Ventura, Calif.) were sedated with carbon dioxide gas, collected in 50 mL polypropylene conical tubes containing filter paper saturated with 10% (w/w) sucrose in water, and allowed to feed at room temperature for about 2-4 hours. Test compounds were dissolved as in dimethylsulfoxide (DMSO) at concentrations ranging from about 0.05 mM to about 100 mM. About 1 μL of dissolved test compound and about 100 μL of isopropanol were dispensed into the bottom of a 9 mL screw-top glass test tube. Positive control test tubes were prepared in the same manner except that no test compounds were dissolved in the DMSO. Each test tube was rolled to coat the sides with the chemical solution, and allowed to air dry 24-48 hours. About 20 houseflies were sedated by refrigeration at 0-4° C. and transferred to each test tube. Each test tube was sealed with organdy cloth secured by an open top screw cap and laid horizontally in the dark. After about 24 hours, the healthy, moribund, and dead houseflies in each test tube were counted. The percentage of dead houseflies in each test tube was then calculated using the formula M=100(D−(FC/100))/(F−(FC/100)), in which M is the percentage of dead houseflies due to the addition of the test compound, D is the number of dead houseflies in the test tube, F is the total number of houseflies in the test tube, and C is the percentage of dead houseflies in the control test tubes.

[2] = system: cat fleas (Ctenocephalides felis), CO Fleas; experiment: In vivo cat flea contact assay, CO fleas; conditions: Ctenocephalides felis, topical; contact with treated filter disk in vial, about 24-30 hours; mM = concentration of the DMSO solution, about 1 μL applied; read-out: LD50 (mM), CO Fleas
Description: (§1) This example describes an in vivo assay to screen compounds for their ability to kill cat fleas via contact.
(§2) Test compounds were dissolved in dimethylsulfoxide (DMSO) at concentrations ranging from about 0.05 mM to about 100 mM. About 1 μL of dissolved test compound was dispensed onto a 6 mm (diameter) GF/C filter disk (filter material available from Whatman Inc., Clifton, N.J.) in the bottom of a 4 mL screw-top glass vial and allowed to air dry 24-48 hours. Positive control vials were prepared in the same manner except that no test compounds were dissolved in the DMSO. About 20 newly emerged cat fleas (Ctenocephalides felis) were sedated by refrigeration at 0-4° C. and transferred to each vial. Each vial was sealed with a thin, perforated Teflon™ septum secured by an open top screw cap and held vertically in the dark. After about 24-30 hours, the healthy, moribund, and dead cat fleas in each vial were counted. The percentage of dead cat fleas in each vial was then calculated using the formula M=100(D−(FC/100))/(F−(FC/100)), in which M is the percentage of dead cat fleas due to the addition of the test compound, D is the number of dead cat fleas in the test vial, F is the total number of cat fleas in the test vial, and C is the percentage of dead cat fleas in the control vials.

[3] = system: cat fleas (Ctenocephalides felis), NC Fleas; experiment: In vivo cat flea contact assay, NC fleas; conditions: contact with treated filter disk in vial, about 24-30 hours; mM = concentration of the DMSO solution, about 1 μL applied
Description: as §1, §2

SMILES | Compounds with the most activity (housefly 3H-EBOB binding) (Housefly GABA receptors) | LD50 (mM), Flies [1] [mM] | LC50 [2] [mM] | LD50 (mM), NC Fleas [3] [mM]
FC(F)(F)c1cc(Cl)c(-n2cc3c(n2)CCCC3)c(Cl)c1 [Compound 13, 2-[2,6-Dichloro-4-(trifluoromethyl)phenyl]-4,5,6,7-tetrahydro-2H-indazole] | most activity | >100 | 37.5 | 20
FC(F)(F)c1cc(Cl)c(-n2cc3c(n2)C2CCC3C2)c(Cl)c1 (stereo not drawn) [Compound 35, 3,4-Diaza-4-[2,6-dichloro-4-(trifluoromethyl)phenyl]tricyclo-[5.2.1.0^2.6]deca-2,5-diene] | most activity | 48 | 17 | 12
CC1(C)CCc2nn(-c3c(Cl)cc(C(F)(F)F)cc3Cl)cc21 [Compound 38, 2-[2,6-Dichloro-4-(trifluoromethyl)phenyl]-4,4-dimethyl-2,4,5,6-tetrahydrocyclopenta[c]pyrazole] | most activity | >100 | 54 | 15

Source: patent US6545033B1, “Fused 1-(2,6-dichloro-4-trifluoromethylphenyl)-pyrazoles, the synthesis thereof and the use thereof as pesticides” (3-Dimensional Pharmaceuticals, Inc., priority 1999, dated 2003)
